Details: Liquid; for mass density: Vibrating tube method; for speed of sound: Frequency=5 MHz, Single path-length method

CCC(=O)[O-].[NH3+]CCO [2-hydroxyethan-1-aminium propionate]
Details	mass density [kg/m3]	speed of sound [m/s]
298.08 K, 10000 kPa	1124.9	–
298.1 K, 30000 kPa	1131.1	–
298.11 K, 15000 kPa	1127.6	–
298.13 K, 35000 kPa	1132.5	–
298.15 K, 20000 kPa	1128.2	–
298.15 K, 25000 kPa	1129.4	–
298.16 K, 100 kPa	1121.1	–
303.03 K, 30000 kPa	1126.3	–
303.07 K, 25000 kPa	1124.9	–
303.07 K, 35000 kPa	1127.2	–
303.09 K, 10000 kPa	1121	–
303.09 K, 15000 kPa	1121.8	–
303.1 K, 20000 kPa	1123.3	–
303.15 K, 100 kPa	1116	1554.7
303.15 K, 1000 kPa	–	1558.7
303.15 K, 2000 kPa	–	1562.7
303.15 K, 3000 kPa	–	1566.7
303.15 K, 4000 kPa	–	1570.7
303.15 K, 5000 kPa	–	1574.7
303.15 K, 6000 kPa	–	1578.8
303.15 K, 7000 kPa	–	1582.9
303.15 K, 8000 kPa	–	1587
303.15 K, 9000 kPa	–	1591.1
303.15 K, 10000 kPa	–	1595.2
303.15 K, 11000 kPa	–	1599.4
303.15 K, 12000 kPa	–	1602.1
303.15 K, 13000 kPa	–	1606.3
303.15 K, 14000 kPa	–	1610.5
303.15 K, 15000 kPa	–	1613.3
303.15 K, 16000 kPa	–	1617.6
303.15 K, 17000 kPa	–	1620.4
303.15 K, 18000 kPa	–	1624.6
303.15 K, 19000 kPa	–	1628.9
303.15 K, 20000 kPa	–	1633.2
313.14 K, 100 kPa	1105.3	–
313.15 K, 100 kPa	–	1526.8
313.15 K, 1000 kPa	–	1531.9
313.15 K, 2000 kPa	–	1535.7
313.15 K, 3000 kPa	–	1539.5
313.15 K, 4000 kPa	–	1542.1
313.15 K, 5000 kPa	–	1546
313.15 K, 6000 kPa	–	1549.9
313.15 K, 7000 kPa	–	1553.8
313.15 K, 8000 kPa	–	1557.8
313.15 K, 9000 kPa	–	1561.7
313.15 K, 10000 kPa	–	1565.7
313.15 K, 11000 kPa	–	1569.7
313.15 K, 12000 kPa	–	1573.7
313.15 K, 13000 kPa	–	1577.7
313.15 K, 14000 kPa	–	1581.7
313.15 K, 15000 kPa	–	1585.8
313.15 K, 16000 kPa	–	1589.9
313.15 K, 17000 kPa	–	1594
313.15 K, 18000 kPa	–	1598.1
313.15 K, 19000 kPa	–	1602.2
313.15 K, 20000 kPa	–	1606.4
313.16 K, 15000 kPa	1111.3	–
313.17 K, 10000 kPa	1110.2	–
313.17 K, 35000 kPa	1117.8	–
313.18 K, 20000 kPa	1113.3	–
313.18 K, 30000 kPa	1116.2	–
313.19 K, 25000 kPa	1114.8	–
323.09 K, 10000 kPa	1098.3	–
323.1 K, 100 kPa	1093	–
323.1 K, 25000 kPa	1103.9	–
323.12 K, 30000 kPa	1105.5	–
323.14 K, 15000 kPa	1099.7	–
323.14 K, 20000 kPa	1102	–
323.14 K, 35000 kPa	1107.3	–
323.15 K, 100 kPa	–	1506.1
323.15 K, 1000 kPa	–	1509.8
323.15 K, 2000 kPa	–	1513.6
323.15 K, 3000 kPa	–	1517.3
323.15 K, 4000 kPa	–	1521.1
323.15 K, 5000 kPa	–	1524.9
323.15 K, 6000 kPa	–	1528.7
323.15 K, 7000 kPa	–	1533.8
323.15 K, 8000 kPa	–	1537.6
323.15 K, 9000 kPa	–	1541.5
323.15 K, 10000 kPa	–	1545.4
323.15 K, 11000 kPa	–	1549.2
323.15 K, 12000 kPa	–	1553.2
323.15 K, 13000 kPa	–	1558.4
323.15 K, 14000 kPa	–	1562.3
323.15 K, 15000 kPa	–	1566.3
323.15 K, 16000 kPa	–	1568.9
323.15 K, 17000 kPa	–	1572.9
323.15 K, 18000 kPa	–	1576.9
323.15 K, 19000 kPa	–	1581
323.15 K, 20000 kPa	–	1585
333.08 K, 35000 kPa	1096.1	–
333.09 K, 10000 kPa	1084.9	–
333.09 K, 15000 kPa	1087.4	–
333.09 K, 25000 kPa	1091.8	–
333.09 K, 30000 kPa	1093.9	–
333.1 K, 20000 kPa	1089.7	–
333.12 K, 100 kPa	1079.6	–
333.15 K, 100 kPa	–	1474.9
333.15 K, 1000 kPa	–	1479.7
333.15 K, 2000 kPa	–	1484.6
333.15 K, 3000 kPa	–	1488.3
333.15 K, 4000 kPa	–	1493.2
333.15 K, 5000 kPa	–	1497
333.15 K, 6000 kPa	–	1501.9
333.15 K, 7000 kPa	–	1505.7
333.15 K, 8000 kPa	–	1509.5
333.15 K, 9000 kPa	–	1514.5
333.15 K, 10000 kPa	–	1518.3
333.15 K, 11000 kPa	–	1523.3
333.15 K, 12000 kPa	–	1527.2
333.15 K, 13000 kPa	–	1531
333.15 K, 14000 kPa	–	1534.9
333.15 K, 15000 kPa	–	1540
333.15 K, 16000 kPa	–	1543.8
333.15 K, 17000 kPa	–	1547.7
333.15 K, 18000 kPa	–	1551.6
333.15 K, 19000 kPa	–	1555.5
333.15 K, 20000 kPa	–	1559.5
343.15 K, 100 kPa	–	1449.3
343.15 K, 1000 kPa	–	1453
343.15 K, 2000 kPa	–	1456.8
343.15 K, 3000 kPa	–	1461.8
343.15 K, 4000 kPa	–	1466.7
343.15 K, 5000 kPa	–	1471.7
343.15 K, 6000 kPa	–	1475.5
343.15 K, 7000 kPa	–	1480.5
343.15 K, 8000 kPa	–	1485.5
343.15 K, 9000 kPa	–	1489.3
343.15 K, 10000 kPa	–	1494.3
343.15 K, 11000 kPa	–	1499.4
343.15 K, 12000 kPa	–	1503.2
343.15 K, 13000 kPa	–	1508.2
343.15 K, 14000 kPa	–	1513.3
343.15 K, 15000 kPa	–	1517.2
343.15 K, 16000 kPa	–	1522.2
343.15 K, 17000 kPa	–	1526.1
343.15 K, 18000 kPa	–	1530
343.15 K, 19000 kPa	–	1533.8
343.15 K, 20000 kPa	–	1537.7
343.17 K, 100 kPa	1066	–
343.17 K, 20000 kPa	1076.6	–
343.17 K, 25000 kPa	1079	–
343.17 K, 30000 kPa	1081.8	–
343.18 K, 15000 kPa	1074.3	–
343.18 K, 35000 kPa	1084.1	–
343.19 K, 10000 kPa	1070.6	–
353.15 K, 100 kPa	–	1416
353.15 K, 1000 kPa	–	1421
353.15 K, 2000 kPa	–	1426.1
353.15 K, 3000 kPa	–	1431.2
353.15 K, 4000 kPa	–	1436.3
353.15 K, 5000 kPa	–	1441.4
353.15 K, 6000 kPa	–	1446.5
353.15 K, 7000 kPa	–	1451.7
353.15 K, 8000 kPa	–	1456.8
353.15 K, 9000 kPa	–	1463.1
353.15 K, 10000 kPa	–	1467
353.15 K, 11000 kPa	–	1473.3
353.15 K, 12000 kPa	–	1478.4
353.15 K, 13000 kPa	–	1482.4
353.15 K, 14000 kPa	–	1487.5
353.15 K, 15000 kPa	–	1492.6
353.15 K, 16000 kPa	–	1496.5
353.15 K, 17000 kPa	–	1500.4
353.15 K, 18000 kPa	–	1504.4
353.15 K, 19000 kPa	–	1509.5
353.15 K, 20000 kPa	–	1513.3
